# Key:
# [1] = test system: HSV-1, Strain no. SM44; assay: HSV-1 skin lesion model in guinea pigs; assay type: in vivo, guinea pig; conditions: for Extent of Skin Pathological Changes EPC (Mean ± SD) / Inhibition rate IR: Acyclovir cream 3 g %
# Excerpt: Material. […] Virus is Herpes simplex type 1 (HSV-1, Strain no. SM44), imported from The American Type Culture Collection. The virus strain was proliferated and preserved by the Department of Virological Diagnosis, Institution of Virology, Chinese Preventative Medical Academy. “Bunched needle” refers to seven individual needles (size No. 7) bunched together as one bunch and seven bunches were put together as one “Bunched needle”. Other related apparatuses: All other apparatuses and reagents were provided by the Department of Virological Diagnosis, Chinese Preventative Medical Academy.
# Animals: Guinea pigs, half male and half female, 200-250 grams (animal license no. YDHZ SCXK11-00-0006), supplied by the Animal Center of the Chinese Medical Academy and Peking Union Medical College.
# HSV-1 cutaneous lesion in guinea pig. The animals were grouped in 5. Animals within each group will be the same gender and have similar body weight. The hair was removed from dorsal side of the animal and the skin was abraded with needles as described above. The entire abraded area was infected with 150 μl of HSV-1 stock suspension.
# Typical herpes lesions appeared on the infected area on the 4th day of infection. The extent of pathological changes was scored as described below. […] The amount of cream given to each animal was 1.5 gram per dose twice daily for a six-day duration.
# Daily records of the pathological changes infected area were made according to the following criteria:
# When the skin lesions developed up to ¼ of the total area, the pathological changes were scored as 1.0-1.6;
# When the skin lesions developed on 2/4 of the total area, the pathological changes were scored as 1.7-2.4;
# When the skin developed on ¾ of the total area, the pathological changes were scored as 2.5-3.2;
# When the skin lesions developed 4/4 of the total areas, the pathological changes were scored as 3.3-4.0;
# When the skin herpes scars developed up to ¼ of the total areas, the pathological changes were scored as 0.9-1.0;
# When the skin herpes scars were up to 2/4 of the total areas, the pathological changes were scored as 0.7-0.8;
# When the skin herpes scars were up to ¾ of the total areas, the pathological changes were scored as 0.5-0.6;
# When the skin herpes scars were up to 4/4 of the total areas, the pathological changes were scored as 0.2-0.4;
# When the skin herpes scars were all detached and lesions healed, the pathological changes were scored as 0.
# [2] = test system: HSV-2, Strain no. 333; assay: HSV-2 mouse vaginal infection model, survival; assay type: in vivo, BALB/c mice; conditions: 3% Acyclovir cream
# Experimental: (Batch no. 200205), provided by the Department of Biology, the Chinese University of Hong Kong, Hong Kong. […] Virus is Herpes simplex type II (HSV-2, Strain no. 333, batch no. 200104010), provided by the Department of Virological Diagnosis, Institution of Virology, Chinese Preventative Medical Academy. Needles for vaginal tract infection (size no. of 12) were prepared by the Department of Virological Diagnosis, Chinese Preventative Medical Academy. African green monkey kidney cells (Vero cells) were provided by the Department of Virological Diagnosis, Chinese Preventative Medical Academy. Physiological saline and cell culture medium was provided by the Department of Virological Diagnosis, Chinese Preventative Medical Academy. Inverted microscope was provided by the Department of Virological Diagnosis, Chinese Preventative Medical Academy. Carbon dioxide incubator was provided by the Department of Virological Diagnosis, Chinese Preventative Medical Academy. And other related apparatuses: provided by the Department of Virological Diagnosis, Chinese Preventative Medical Academy.
# Animals: BALB/c mice, female, body weight range of 18-20 grams. Animal license no. YDHZ 01-3003, supplied by the Animal Center of the Chinese Medical Academy and Peking Union Medical College.
# 1. Target of the experiments: The mice could develop viral vaginitis following infection with HSV-2. […] Statistical analysis, t values and p values, was calculated in comparison with the virus control group. Efficacy of the testing samples will be evaluated on the basis of statistical calculation.
# 2. […] The number of animals per group was 10. Ten additional animals that were not infected with HSV-2 and received no treatment served as the uninfected control group.
# Treatment began on day 3 post-infection. This was achieved by applying the cream to the vaginal tract with cotton swabs. The creams were given at a dose of 2 mg per mouse twice daily for a six-day duration. Mortality and the number of days for lethality to occur were recorded. The experiment was repeated twice. The protection rates and life span extension rates were calculated. The efficacy of testing agents were judged in comparison with the […] on the basis of the calculated t values and p values.
# The survival rate and number of days for lethality to occur were recorded. The latter was expressed as the average life span in days.
# [3] = test system: HSV-2, Strain no. 333; assay: Recovery of HSV-2 from vaginal samples of infected mice (CPE on Vero cells); assay type: in vivo, BALB/c mice; conditions: Acyclovir cream 3 g %
# [4] = test system: HSV-1; conditions: Xu et al., Heterocycles 1994; cited from earlier work
# [5] = test system: HSV-induced cell fusion; conditions: Srinivas et al.; cited from earlier work
# [6] = test system: HSV-1; assay: Plaque reduction assay (Example 3), HSV-1 on Vero cells; assay type: cell-based, herpes simplex virus type 1
# [7] = test system: HSV-1 (acyclovir-sensitive strain, BW-S strain); assay: Plaque reduction assay (Example 6), HSV-1 BW-S strain on Vero cells; assay type: cell-based, herpes simplex virus type 1
# [8] = test system: HSV-1 strain Delta gC2-3 (glycoprotein C deficient); assay: Plaque reduction assay, glycoprotein C deficient HSV-1; assay type: cell-based, herpes simplex virus type 1; conditions: strain Delta gC2-3, plaque reduction assay
# [9] = test system: HSV-1 strain #15577; assay: Binding experiment: residual infectious virus after incubation with sample, strain #15577; assay type: cell-based, herpes simplex virus type 1; conditions: 2 mg heparin with 10^5 pfu, 36° C., 1 h; water control = 100%
# Experimental: (§1) The mixture was serially diluted in medium and the number of residual infectious virus was determined by the plaque assay. The number of plaque developed in the water treatment control was taken as 100%.
# [10] = test system: HSV-1 strain Delta gC2-3; assay: Binding experiment: residual infectious virus after incubation with sample, Delta gC2-3; assay type: cell-based, herpes simplex virus type 1; conditions: 2 mg heparin with 10^5 pfu, 36° C., 1 h; water control = 100%
# Experimental: as §1
# [11] = test system: HSV-1 strain #15577; assay: Binding competition experiment, strain #15577; assay type: cell-based, herpes simplex virus type 1; conditions: mixed with virus and used immediately
# Experimental: (§2) The anti-herpes effect of sodium heparin was further investigated by a binding competition experiment. In this experiment, 0.5 ml samples of HSV-1 (about 100 pfu) were mixed with 0.5 ml of sodium heparin at different concentrations. The mixtures were immediately used to infect Vero cells at 37° C. for 1 h. Following the incubation, the number of plaques were determined in the plaque assay. […] At 1 mg/ml heparin, the % plaque inhibition was 92%. Similar results were obtained when the gC-deficient HSV-1, Delta gC2-3, was used. In which case, the % plaque inhibition for 62.5 μg/ml and 1 mg/ml heparin were 77% and 86%, respectively.
# [12] = test system: gC-deficient HSV-1, Delta gC2-3; assay: Binding competition experiment, Delta gC2-3; assay type: cell-based, herpes simplex virus type 1; conditions: mixed with virus and used immediately
# Experimental: as §2
# [13] = test system: wild-type HSV-1; assay: Penetration assay, wild-type HSV-1 into Vero cells; assay type: cell-based, herpes simplex virus type 1
# Experimental: (§3) Penetration Assay. The penetration assay was conducted using the method as described in Example with modifications. Confluent Vero cell monolayers in 25 ml tissue culture flasks were chilled to 4° C. for 45 mm. The monolayers were infected with 300 pfu of HSV-1 in 2.5 ml of cold MEM Earle's medium. Attachment was synchronized for 1 h at 4° C. The flasks were washed twice with 4 ml of cold PBS to remove any unbound virus. The monolayers were covered with 5 ml of maintenance medium and shifted to 37° C. […] The flasks were incubated at 37° C. for 90 min, after which the monolayers were washed twice with 4 ml of PBS and covered with 10 ml of 0.8% methylcellulose in maintenance medium. Plaque formation was allowed at 37° C. for 72 h. For the citrate buffer treated group, 3 ml of buffer was added to the monolayers for 1 min. The cells were washed twice with PBS, after which medium was added to allow plaque formation. For the no treatment control group, following medium removal, the monolayers were washed twice with PBS and medium added to allow plaque formation.
# Citrate buffer at pH 3 represents the penetration kinetics of HSV into Vero cells. The low pH removes adherent virus particles from the cell surface (i.e., those that have not yet penetrated). At time 20 min, all the wild type virus particles have penetrated and can not be removed by the low pH buffer (Table 6). […] This reduction is less obvious than the heparin treatment. At time 0 min, only 19% of the virus could penetrate and form plaque as compared to 49% in the heparin treatment.
# [14] = test system: glycoprotein C-deficient mutant HSV-1; assay: Penetration assay, gC-deficient HSV-1 mutant into Vero cells; assay type: cell-based, herpes simplex virus type 1
# Experimental: as §3
# However, by 60 min, all the virus particles appeared to have penetrated.
# [15] = Tabba et al.; cited from earlier work
# [16] = Heparin 1000 μg/ml added at Time 0 min
# [17] = Heparin 1000 μg/ml added at Time 10 min
# [18] = Heparin 1000 μg/ml added at Time 20 min
compound,measurement,setting,value
Nc1nc2c(ncn2COCCO)c(=O)[nH]1 [Acyclovir],Extent of Skin Pathological Changes EPC (Mean ± SD),[1]; Day 4 (start of treatment),3.87 ± 0.12 cm^2
same,Inhibition rate IR,[1]; Day 4 (start of treatment),0%
same,Extent of Skin Pathological Changes EPC (Mean ± SD),[1]; Day 5,3.54 ± 0.22 cm^2
same,Inhibition rate IR,[1]; Day 5,11%
same,Extent of Skin Pathological Changes EPC (Mean ± SD),[1]; Day 6,2.77 ± 0.40 cm^2
same,Inhibition rate IR,[1]; Day 6,30%
same,Extent of Skin Pathological Changes EPC (Mean ± SD),[1]; Day 7,2.02 ± 0.30 cm^2
same,Inhibition rate IR,[1]; Day 7,44%
same,Extent of Skin Pathological Changes EPC (Mean ± SD),[1]; Day 8,1.21 ± 0.38 cm^2
same,Inhibition rate IR,[1]; Day 8,63%
same,Extent of Skin Pathological Changes EPC (Mean ± SD),[1]; Day 9,0.82 ± 0.16 cm^2
same,Inhibition rate IR,[1]; Day 9,71%
same,Extent of Skin Pathological Changes EPC (Mean ± SD),[1]; Day 10,0.38 ± 0.18 cm^2
same,Inhibition rate IR,[1]; Day 10,84%
same,Extent of Skin Pathological Changes EPC (Mean ± SD),[1]; Day 11,0.09 ± 0.19 cm^2
same,Inhibition rate IR,[1]; Day 11,96%
same,signs of paralysis in lower limbs,"[1]; cream-treated groups, seen in some animals of the virus control group",not observed
same,Life Span Extension Rate,[2],81.2%
same,Protection Rate,[2],78.6%
same,Survival,[2],80%
same,No. of death,[2]; 30 animals,6
same,No. of survival,[2]; 30 animals,24
same,Life Span Extension Rate,[2]; listed as acyclovir,81.3%
same,Therapeutic Rate,[3],71%
same,No. of samples containing HSV-2 After Treatment,[3]; 30 vaginal samples,8
same,No. of samples containing HSV-2 Before Treatment,[3]; 30 vaginal samples,30
O=Cc1cc(O)c(O)c(O)c1 [gallic aldehyde],IC50 against HSV-1,[4],12.5 mg/L
apolipoprotein A-I: high density serum apolipoprotein A-I,concentration inhibiting HSV-induced cell fusion,[5],1 µM
geponin,IC50 against HSV-1,[4],25 mg/L
heparin,IC50,"[6]; HSV-1 strain #15577, plaque reduction assay",750 mg/L
same,IC50 values,"[6]; plaque reduction assay, added 1 h after virus, strains 15577 and Delta gC2-3",750 to 1000 mg/L
same,anti-HSV-1 IC50,[7],300 mg/L
same,IC50,[8],> 1000 mg/L
same,original virus still infectious,[9],30%
same,original virus still infectious,[10],42%
same,% plaque inhibition,[11]; 62.5 μg/ml,88%
same,% plaque inhibition,[11]; 1 mg/ml,92%
same,% plaque inhibition,[12]; 62.5 μg/ml,77%
same,% plaque inhibition,[12]; 1 mg/ml,86%
same,% Plaques,[13]; [16],49%
same,% Plaques,[13]; Heparin 1000 μg/ml added at Time 2 min,57%
same,% Plaques,[13]; Heparin 1000 μg/ml added at Time 4 min,88%
same,% Plaques,[13]; Heparin 1000 μg/ml added at Time 6 min,86%
same,% Plaques,[13]; [17],100%
same,% Plaques,[13]; Heparin 1000 μg/ml added at Time 15 min,100%
same,% Plaques,[13]; [18],100%
same,% Plaques,[14]; [16],62%
same,% Plaques,[14]; [17],90%
same,% Plaques,[14]; [18],100%
same,% Plaques,[14]; Heparin 1000 μg/ml added at Time 30 min,100%
same,% Plaques,[14]; Heparin 1000 μg/ml added at Time 40 min,100%
same,% Plaques,[14]; Heparin 1000 μg/ml added at Time 50 min,84%
same,% Plaques,[14]; Heparin 1000 μg/ml added at Time 60 min,100%
same,effects on the penetration of the gC-deficient mutant into Vero cells,"[14]; heparin 1000 μg/ml, in words",no apparent effects
prunellin,pH in aqueous solution,[15],7.4

# Reference: patent publication US20030215529A1, “Composition and pharmaceutical preparation containing same for the treatment of herpes and related viral infections” (Dalhousie University, priority 1998, published 2003)
